Measurements published in the supplement of paper PMC11616607.

What was measured:
Experiment in all cases: drug sensitivity score (DSS) from 5-point dose-response viability curve (DSS (area-under-curve based score)); higher = more sensitive (stronger growth inhibition or killing); extreme values may be limits of the assay
Settings in all cases: exposure time: 72 h; concentration range: 5 concentrations over 10,000-fold range
CAOV3 = test system: CAOV3
Outline: (§1)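 Drugs in DMSO or water were acoustically dispensed (Echo 550) into 384-well plates at five concentrations across a 10,000-fold range. Ovarian cancer and normal ovarian cells (1,500 per well) were then added, incubated for 3 days at 37°C with 5% CO2, and read for viability by CellTiter-Glo luminescence on a PHERAstar FS. From these readings, Breeze software derived a drug sensitivity score per cell line and drug, with higher values meaning more sensitive and zero meaning no response.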

OVCAR4 = test system: OVCAR4
Outline: as §1

OV90 = test system: OV90
Outline: as §1

OVCAR8 = test system: OVCAR8
Outline: as §1

COV362 = test system: COV362
Outline: as §1

OVCAR5 = test system: OVCAR5
Outline: as §1

Kuramochi = test system: Kuramochi
Outline: as §1

Ovsaho = test system: Ovsaho
Outline: as §1

COV318 = test system: COV318
Outline: as §1

HOSE2C = test system: HOSE2C
Outline: as §1

HOSE1C = test system: HOSE1C
Outline: as §1

JHOS2 = test system: JHOS2
Outline: as §1

| Compound | drug sensitivity score (CAOV3) | drug sensitivity score (OVCAR4) | drug sensitivity score (OV90) | drug sensitivity score (OVCAR8) | drug sensitivity score (COV362) | drug sensitivity score (OVCAR5) | drug sensitivity score (Kuramochi) | drug sensitivity score (Ovsaho) | drug sensitivity score (COV318) | drug sensitivity score (HOSE2C) | drug sensitivity score (HOSE1C) | drug sensitivity score (JHOS2) |
| --- | --- | --- | --- | --- | --- | --- | --- | --- | --- | --- | --- | --- |
| CN[C@@H]1C[C@H]2O[C@@](C)([C@@H]1OC)n1c3ccccc3c3c4c(c5c6ccccc6n2c5c31)C(=O)N[C@H]4O [UCN-01] | 19.3 | 13.8 | 22.8 | 18.8 | 17.8 | 18.1 | 14.6 | 23.8 | 18.7 | 29.7 | 27.8 | 15.3 |
| COC(=O)c1ccc2c(c1)[nH]c1ncnc(NCCCN3CCCCC3)c12 [UM729] | 0 | 0 | 0 | 1.6 | 0 | 1 | 0 | 0.1 | 0 | 0 | 0.2 | 0 |
| COc1cc2c(NC3CCN(C(C)C)CC3)nc(C3CCCCC3)nc2cc1OCCCN1CCCC1 [UNC0638] | 0.1 | 0.9 | 5.4 | 3.6 | 4.1 | 3.4 | 0.8 | 0.3 | 0.6 | 0 | 0 | 0 |
| COc1cc2c(NC3CCN(C(C)C)CC3)nc(N3CCC(F)(F)CC3)nc2cc1OCCCN1CCCC1 [UNC0642] | 0.2 | 0 | 4.4 | 0.7 | 0.9 | 1 | 0 | 0 | 0 | 0 | 0 | 0 |
| O=C(c1ccc(C(=O)N2CCC(N3CCCC3)CC2)c(Nc2ccccc2)c1)N1CCC(N2CCCC2)CC1 [UNC1215] | 0 | 0 | 0 | 0 | 0 | 0 | 0 | 0 | 0 | 0 | 0 | 0 |
| CCCCNc1ncc(C(=O)NCc2ccc(-n3ccnc3)cc2)c(NC2CCC(O)CC2)n1 (stereo not drawn) [UNC2881] | 0.2 | 0.1 | 1.2 | 0 | 0 | 0.6 | 0 | 0.8 | 0 | 0.5 | 0 | 0 |
| NC(=O)c1cccc(-c2cccc(OC(=O)NC3CCCCC3)c2)c1 [URB597] | 0 | 0 | 0 | 0 | 0 | 0 | 0 | 0 | 0 | 0 | 0 | 0 |
| CC(C)Nc1cc(-c2c[nH]c(C(=O)N[C@H](CO)c3cccc(Cl)c3)c2)c(Cl)cn1 [Ulixertinib] | 8 | 1.1 | 14 | 3.6 | 1.9 | 7.8 | 7.7 | 11.5 | 0.9 | 2.2 | 0 | 3.8 |
| CC[C@@H]1CN(C(=O)NCC(F)(F)F)C[C@@H]1c1cnc2cnc3[nH]ccc3n12 [Upadacitinib] | 0 | 0 | 1.3 | 0 | 0.2 | 0 | 0.8 | 0 | 2.1 | 0 | 0 | 0 |
| Cn1ncc(Cl)c1-c1cc(C(=O)N[C@H](CN)Cc2ccc(F)c(F)c2)oc1Cl [Uprosertib] | 0.9 | 0 | 0.7 | 0 | 0 | 0.9 | 1 | 0.6 | 0.4 | 2.1 | 3.2 | 0 |
| CS(=O)(=O)c1ccc(-c2cnc(N)c(C(=O)Nc3ccccc3)n2)cc1 [VE-821] | 0 | 0 | 0 | 0 | 0 | 0 | 0 | 1.2 | 0 | 1.7 | 4 | 0 |
| O=C(O)CC1CC(c2ccccc2)=NO1 (stereo not drawn) [VGX-1027] | 0 | 0 | 0 | 0 | 0 | 0 | 0 | 0 | 0 | 0 | 0 | 0 |
| C=CC(=O)N1CC/C(=C\c2ccc(F)c([N+](=O)[O-])c2)C(=O)/C(=C/c2ccc(F)c([N+](=O)[O-])c2)C1 [VLX1570] | 18.7 | 18.7 | 16.8 | 26.8 | 9.4 | 17.1 | 18 | 25 | 12.2 | 21.4 | 23.3 | 17.5 |
| CNC(=O)c1ccccc1Nc1cc(Nc2ccc(N3CCOCC3)cc2OC)ncc1C(F)(F)F [VS-4718] | 6.1 | 6.8 | 9.2 | 4.4 | 4.1 | 8 | 11.6 | 11.4 | 5.6 | 6 | 3.6 | 5.5 |
